Measured values published in patent EP0289070A1, “Tertiary arylethyl amine derivatives having opiate-antagonistic activity” (DUPHAR INTERNATIONAL RESEARCH B.V, priority 1987, dated 1988).
Where two headings read alike, the source gives them in different places.

Key:
[1] = target: cholinergic muscarine receptors; format: binding, rat
[2] = target: (mainly u.-type) opiate receptors (Rattus norvegicus, UniProt P33535); assay: Affinity to opiate receptors: [3H]-naloxone displacement in rat brain homogenates; format: binding
[3] = [^3H] QNB displacement expressed in Ki; homogenates of rat brains; read-out: Affinity to muscarine receptors 2)

Sequence of (mainly u.-type) opiate receptors (P33535 whole entry): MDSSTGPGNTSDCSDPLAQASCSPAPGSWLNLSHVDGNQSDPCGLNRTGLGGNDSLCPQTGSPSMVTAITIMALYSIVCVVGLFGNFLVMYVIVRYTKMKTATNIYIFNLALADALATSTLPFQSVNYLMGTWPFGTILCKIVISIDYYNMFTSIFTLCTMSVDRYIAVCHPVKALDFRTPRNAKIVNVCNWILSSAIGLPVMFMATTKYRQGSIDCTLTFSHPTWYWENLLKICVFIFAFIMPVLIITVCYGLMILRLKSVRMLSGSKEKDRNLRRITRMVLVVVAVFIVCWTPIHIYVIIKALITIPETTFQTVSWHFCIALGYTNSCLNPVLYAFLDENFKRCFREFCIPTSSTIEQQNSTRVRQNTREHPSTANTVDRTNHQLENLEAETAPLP

SMILES: CCN(CCCC(=O)C1CCCCC1)C(C)Cc1ccc(OC)cc1 (racemic) [g, reference compound]
- Ki [1, 3]: 2.7 nM

SMILES: CCCC(=O)CCCN(CC)C(C)Cc1ccc(OC)cc1 (racemic) [e, reference compound]
- Ki [1, 3]: 28 nM

SMILES: CCN(CCCC(=O)C1CCCCC1)C(C)Cc1ccc(Cl)cc1 (racemic) [f, reference compound]
- Ki [1, 3]: 8.3 nM

SMILES: CCN(CCCC(=O)C1CCCCC1)[C@@H](C)Cc1ccc(O)cc1 [d]
- Ki [1, 3]: 4.1 nM
- muscarinolytic activity ([1]; pure R and S isomers of racemic compound b compared): found substantially exclusively in the S isomer

SMILES: CCN(CCCC(=O)C1CCCCC1)[C@H](C)Cc1ccc(O)cc1 [c]
- opiate-antagonistic activity [2]: found substantially entirely in the R isomer
- Ki [1, 3]: 450 nM

SMILES: CN1[C@@H]2CC[C@H]1C[C@@H](OC(=O)C(CO)c1ccccc1)C2 (stereo partly shown) [atropine, reference compound]
- Ki ([1]; read-out: Affinity to muscarine receptors 2)): 1.4 nM

SMILES: CCCN(CCCC(=O)C1CCCCC1)C(C)Cc1ccc(O)cc1 (racemic) [a]
- Ki [1, 3]: 5.2 nM

SMILES: CCN(CCCC(=O)C1CCCCC1)C(C)Cc1ccc(O)cc1 (racemic) [b]
- Ki [1, 3]: 9.6 nM
